Here are results for two molecules from ChEMBL document CHEMBL3046909, “C(18) acetylenic fatty acids of Ximenia americana with potential pesticidal activity” (J Agric Food Chem, 2000).

Values after ≈ are worked out from the molar mass of the structure shown.

The term LC50 denotes the concentration lethal to half of the exposed cells or organisms. The low end stands for greater toxicity, the high end for lower toxicity.

Data set [1] relates to Clavigralla tomentosicollis. The data set is described as follows: Inhibition of hatching of Clavigralla tomentosicollis eggs in pods of cowpea at 4x10'4 ug/mL spray measured after 6 days. It counts as functional.
A short description of data set [2]: (§1) Toxicity in Artemia (brine shrimps) larvae. It counts as organism-based. To be noted: in vivo.
Data set [3] relates to Artemia. Described as §1. It counts as organism-based. To be noted: in vivo.

With `C/C=C/C=C/C#C/C=C\CCCCCCCCC(=O)O`, the “inhibition (INH)” value in data set [1] was 92%. For the same molecule, the LC50 in data set [2] turned out to be 20 µg/mL (≈ 72.9 µM).
As to `CC[C@H](CC[C@@H](C)[C@H]1CC[C@H]2[C@@H]3CC=C4C[C@@H](O)CC[C@]4(C)[C@H]3CC[C@]12C)C(C)C` [BETA-SITOSTEROL], the Activity result in data set [3] is on record as “Non-toxic”.
